Source: the NIST ThermoML archive (doi:10.1016/j.tca.2013.05.023)
± gives the expanded uncertainty stated by the source.

Columns and labels:
[1] = molar heat capacity at constant pressure; xn = mol fraction of the nth substance listed; details: 101 kPa, Liquid, Small sample (50 mg) DSC, x1 = 0.3333
[2] = xn = mol fraction of the nth substance listed; details: 101 kPa, Liquid, Alternating current cell with electrodes, x1 = 0.3333

Row | SMILES | molar heat capacity at constant pressure ([1]; 303.15 K) [J/K/mol] | molar heat capacity at constant pressure ([1]; 308.15 K) [J/K/mol] | molar heat capacity at constant pressure ([1]; 313.15 K) [J/K/mol] | molar heat capacity at constant pressure ([1]; 318.15 K) [J/K/mol] | molar heat capacity at constant pressure ([1]; 323.15 K) [J/K/mol] | molar heat capacity at constant pressure ([1]; 328.15 K) [J/K/mol] | molar heat capacity at constant pressure ([1]; 333.15 K) [J/K/mol] | molar heat capacity at constant pressure ([1]; 338.15 K) [J/K/mol] | molar heat capacity at constant pressure ([1]; 343.15 K) [J/K/mol] | molar heat capacity at constant pressure ([1]; 348.15 K) [J/K/mol] | molar heat capacity at constant pressure ([1]; 353.15 K) [J/K/mol] | electrical conductivity ([2]; 298.15 K) [S/m] | electrical conductivity ([2]; 303.15 K) [S/m] | electrical conductivity ([2]; 308.15 K) [S/m] | electrical conductivity ([2]; 313.15 K) [S/m] | electrical conductivity ([2]; 318.15 K) [S/m] | electrical conductivity ([2]; 323.15 K) [S/m] | electrical conductivity ([2]; 328.15 K) [S/m] | electrical conductivity ([2]; 333.15 K) [S/m] | electrical conductivity ([2]; 338.15 K) [S/m] | other results
1 | CCN(CC)CCO.Cl [2-(diethylamino)ethanol hydrochloride] + OCC(O)CO | 83.46 ± 3.5 | 83.96 ± 3.6 | 84.39 ± 3.6 | 85.16 ± 3.6 | 85.72 ± 3.6 | 86.36 ± 3.7 | 86.96 ± 3.7 | 87.79 ± 3.7 | 88.46 ± 3.8 | 89.09 ± 3.8 | 89.76 ± 3.8 | 0.069 ± 0.001 | 0.098 ± 0.002 | 0.134 ± 0.003 | 0.175 ± 0.004 | 0.228 ± 0.005 | 0.293 ± 0.006 | 0.368 ± 0.007 | 0.456 ± 0.009 | 0.556 ± 0.011 | electrical conductivity ([2]; 343.15 K): 0.667 ± 0.013 S/m
2 | CCN(CC)CCO.Cl [2-(diethylamino)ethanol hydrochloride] + OCCO | 68.03 ± 2.9 | 68.43 ± 2.9 | 68.83 ± 2.9 | 69.33 ± 2.9 | 69.83 ± 3 | 70.36 ± 3 | 71.03 ± 3 | 71.53 ± 3 | 72.09 ± 3.1 | 72.69 ± 3.1 | 73.26 ± 3.1 | 0.47 ± 0.009 | 0.565 ± 0.011 | 0.68 ± 0.014 | 0.81 ± 0.016 | 0.96 ± 0.019 | 1.12 ± 0.02 | 1.29 ± 0.03 | 1.48 ± 0.03 | 1.68 ± 0.03 | electrical conductivity ([2]; 343.15 K): 1.88 ± 0.04 S/m
